Measured values from US20170037117A1, “COMPOSITIONS AND METHODS FOR TREATING METABOLIC DISORDERS” (Salk Institute for Biological Studies, priority 2014, published 2017).
“Also recorded” adds a separate entry of the source. Ends that are not written are not given here.

Tests used:
[1] = test system: G1 Fab binding to human α-CGRP on the chip; assay: Epitope mapping of antibody G1 by peptide competition using Biacore; conditions: for percentage of binding of G1 Fab to human α-CGRP blocked by competing peptide: 10 uM peptide in 50 nM G1 Fab (2000:1 mol peptide/Fab), FIG. 6
Sequence of G1 Fab binding to human α-CGRP on the chip (as listed by the source): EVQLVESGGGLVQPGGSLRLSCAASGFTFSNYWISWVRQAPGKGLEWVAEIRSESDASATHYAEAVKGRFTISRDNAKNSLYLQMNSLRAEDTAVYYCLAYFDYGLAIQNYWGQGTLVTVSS
Sequence of G1 Fab binding to human α-CGRP on the chip (as listed by the source): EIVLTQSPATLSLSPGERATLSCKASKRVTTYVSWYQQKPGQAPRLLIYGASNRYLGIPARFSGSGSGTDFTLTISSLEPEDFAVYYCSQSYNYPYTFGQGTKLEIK
Description: N-biotinylated human α-CGRP was captured on SA sensor chip. […] Y axis represents percentage of binding blocked by the presence of the competing peptide compared with the binding in the absence of the competing peptide.
Human α-CGRP was purchased as an N-biotinylated version to enable its high-affinity capture via SA sensor chips. […] All these peptides are amidated at the C-terminus.

[2] = test system: MIN6 cells; assay: Insulin secretion assay of mouse insulinoma cells (MIN6) upon glucose stimulation; type: cell-based; conditions: 16.8 mM glucose; for effect on glucose-stimulated insulin release: 100 nM to 500 nM peptide, FIGS. 15A-C, 16A
Experimental: FIGS. 15A-15C: Insulin secretion assay of mouse insulinoma cells (MIN6) upon 16.8 mM glucose stimulation.
FIGS. 16A-16C illustrate insulin secretion and inflammation of the TRPV1 mutant mice. FIG. 16A: Insulin secretion assay of mouse insulinoma cells (MIN6) upon 16.8 mM glucose stimulation with 0.1-0.5 μM synthetic human CGRPα. FIG. 16B: Insulin secretion assay (MIN6) upon 16.8 mM glucose and exendin 4 stimulation.
MIN6 insulinoma cells were obtained at passage 18 from Ulupi Jhala (UCSD, La Jolla, Calif.) and were cultured in DMEM (Life technologies) containing 11 mM glucose, 10% FBS, Glutamax (Invitrogen) and 10 μM β-mercapthoethanol as previously described (Huising et al., Proc. Natl. Acad. Sci. 107:912-917, 2010). Glucose stimulation was performed at low (2.8 mM) and high (16.8 mM). Treatments were diluted in Krebs-Ringer bicarbonate buffer with 2.8 mM glucose.
To mimic pancreatic β-cell glucose mediated insulin release, mouse insulinoma MIN6 cells were used (Huising et al., Proc. Natl. Acad. Sci. 107:912-917, 2010).

[3] = test system: CRTC1 shuttling in DRG neurons; assay: CRTC1 nuclear shuttling in dissociated DRG neuronal cultures (immunostaining); type: cell-based, mouse
[4] = Indirect calorimetry (RER, oxygen consumption) of old wild-type mice treated with CGRP8-37 by osmotic pump; type: in vivo, mouse; conditions: old (22-23 months) male WT C57BL/6J mice, osmotic pumps, 5.5 mg/mL, after 6 weeks of treatment
Experimental: FIGS. 15A-15C: Insulin secretion assay of mouse insulinoma cells (MIN6) upon 16.8 mM glucose stimulation. Cells were incubated with 0.1-0.5 μM synthetic peptides for FIG. 15A: rat CGRPα, FIG. 15B: rat CGRPβ and FIG. 15C: rat Substance P, n=4, means±S.E.M, **p<0.01, *p<0.05, Student's t test. FIG. 15D: Serum levels of CGRP measured by ELISA in blood samples from WT and TRPV1 mutants at 3 and 24 months, n=7, means±S.E.M. a, ns and b, p<0.05. FIG. 15E: Respiratory exchange ratio (RER) analysis and oxygen consumption FIG. 15F: of 23 months old male WT animals treated with CGRP8-37 or vehicle control, n=10, means±S.E.M.,**p<0.01, *p<0.05, Student's t test.
Indirect calorimetric studies were conducted in a Comprehensive Lab Animal Monitoring System (Columbus Instruments). For GTT and GSIS, glucose (2 g/kg weight) was intraperitoneally administered and blood glucose was measured from tail bleeds at indicated times after injection using a One Touch Ultra glucometer (LifeScan). For the ITT, 5 hour fasted mice were injected with 1 u/kg of human insulin (Humulin; Eli Lily) and glucose was measured as in the GTT. […] Serum insulin was measured using an UltraSensitive Insulin ELISA kit (Crystal Chem). Serum levels of fasted leptin, adiponectin were measured using Quantikine ELISA Kits (R&D systems). […] CGRP was measured using ELISA (EIAab). […]

K35E (19-37): human α-CGRP mutant fragment, SEQ ID NO: 20, SGGVVKNNFVPTNVGSEAF, C-terminally amidated (SGGVVKNNFVPTNVGSEAF-NH2; listed as Homo sapiens)
percentage of binding of G1 Fab to human α-CGRP blocked by competing peptide [1]: 100%

8-37: human α-CGRP fragment 8-37, SEQ ID NO: 16, VTHRLAGLLSRSGGVVKNNFVPTNVGSKAF, C-terminally amidated [Clone 8-37]
percentage of binding of G1 Fab to human α-CGRP blocked by competing peptide [1]: 100%

substance P (RPKPQQFFGLM-NH2; ends and bridges not checked; UniProt P06767 58-68, looked up) [TRPV1 secreted neuropeptide; synthetic rat peptide]
effect on glucose-stimulated insulin release [2]: did not alter insulin secretion

COc1cc(CNC(=O)CCCC/C=C/C(C)C)ccc1O [Cap, capsaicin]
CRTC1 nuclear localization [3]: accumulation of CRTC1 in the nuclei of TRPV1-positive cells | Cap-induced CRTC1 shuttling ([3]; TRPV1 mutant DRG neurons, Cap 1 μM, FIG. 14C): abolished

COc1cccc(NC(=O)/C=C/c2ccc(Cl)cc2)c1 [SB-366791]
CRTC1 nuclear localization after blockade of TRPV1 ([3]; WT DRG neurons, pretreatment prior to stimulation with FSK and Cap, 10 μM or 2 μM, FIG. 14D): robust nuclear exclusion of CRTC1

CGRP 8-37: positive control compound (vasodilatation antagonist); CGRP receptor antagonist (Tocris Bioscience) (VTHRLAGLLSRSGGVVKNNFVPTNVGSKAF-NH2; UniProt P06881 90-119, looked up, fragment)
oxygen consumption ([4]; vs controls): increased | respiratory exchange ratio (RER), metabolic circadian shift from night to day ([4]; vs vehicle): reappearance of a more youthful metabolic circadian shift from night to day

G1: humanized IgG2 monoclonal anti-CGRP antagonist antibody; VH SEQ ID NO: 1, VL SEQ ID NO: 2; ATCC PTA-6867 and PTA-6866 [Clone G1]
epitope on human α-CGRP that is recognized by antibody G1 ([1]; Biacore peptide competition and variant affinities): targets a C-terminal epitope of CGRP; also recorded: binds to a C-terminal epitope with F37 and G33 being the most important residues; also recorded: on the C-terminal end of human α-CGRP

K35M (19-37): human α-CGRP mutant fragment, SEQ ID NO: 21, SGGVVKNNFVPTNVGSMAF, C-terminally amidated (SGGVVKNNFVPTNVGSMAF-NH2; listed as Homo sapiens)
percentage of binding of G1 Fab to human α-CGRP blocked by competing peptide [1]: 100%

rat β-CGRP: rat β-CGRP 1-37, SEQ ID NO: 44, SCNTATCVTHRLAGLLSRSGGVVKDNFVPTNVGSKAF
percentage of binding of G1 Fab to human α-CGRP blocked by competing peptide [1]: 100% | effect on glucose-stimulated insulin release [2]: insulin release was greatly blunted | reduction of insulin release, % of the maximum insulin response ([2]; 500 nM peptide): 58%

P29A (19-37): human α-CGRP mutant fragment, SEQ ID NO: 18, SGGVVKNNFVATNVGSKAF, C-terminally amidated (SGGVVKNNFVATNVGSKAF-NH2; listed as Homo sapiens)
percentage of binding of G1 Fab to human α-CGRP blocked by competing peptide [1]: 100%

1-37 of β-CGRP (WT): human β-CGRP 1-37, SEQ ID NO: 43, ACNTATCVTHRLAGLLSRSGGMVKSNFVPTNVGSKAF, C-terminally amidated
percentage of binding of G1 Fab to human α-CGRP blocked by competing peptide [1]: 100%

26-37: human α-CGRP fragment 26-37, SEQ ID NO: 35, NFVPTNVGSKAF, C-terminally amidated [Clone 26-37]
percentage of binding of G1 Fab to human α-CGRP blocked by competing peptide [1]: 100%

NC1=N[C@H](O)[C@H]2[C@H]3O[C@]4(O)O[C@@H]([C@@H](O)[C@@]2(N1)[C@@H]4O)[C@]3(O)CO [TTX, Tetrodotoxin]
distribution of CRTC1 [3]: remained mostly cytoplasmic

rat α-CGRP: rat α-CGRP 1-37, SEQ ID NO: 41, SCNTATCVTHRLAGLLSRSGGVVKDNFVPTNVGSEAF
percentage of binding of G1 Fab to human α-CGRP blocked by competing peptide [1]: 100% | reduction of insulin release, % of the maximum insulin response ([2]; 100 nM peptide): 46% | effect on glucose-stimulated insulin release [2]: insulin release was greatly blunted

K35A (19-37): human α-CGRP mutant fragment, SEQ ID NO: 19, SGGVVKNNFVPTNVGSAAF, C-terminally amidated (SGGVVKNNFVPTNVGSAAF-NH2; listed as Homo sapiens)
percentage of binding of G1 Fab to human α-CGRP blocked by competing peptide [1]: 100%
